Type in all cases: biochemical
One experiment addresses Green Monkey (1A3) (Chlorocebus sabaeus, UniProt Z9LO20H8W3). As to the kind of experiment: Inhibition of SULT1A3 homologues in different species: Green Monkey. The protocol: (§1) Compounds 12, 23 and 25 were also tested for Inhibition of SULT1A3 in different species.
(§2) Inhibition of SULT1A3 Homologues in Different Species. SULT1A3 is only expressed in humans and higher primates. SULT1D1 is the isoform expressed in dogs and rodents that sulfonates neurotransmitters and is most similar to SULT1A3. Three synthesized allosteres (12, 23, and 25) were tested against both 1A3 and 1D1 from different species in order to explore testing in animal models. […] Mice have been engineered such that their SULT1A1/2 enzymes have been knocked out and replaced with the human versions of those isoforms.

For a further experiment, the target named is Rhesus Macaque (1A3) (Macaca mulatta, UniProt A0A5F7ZQH3). As to the kind of experiment: Inhibition of SULT1A3 homologues in different species: Rhesus Macaque. Here is the method: as §1, §2
The next experiment has as its target T1, SULT1E1 (Homo sapiens, UniProt P49888).
T1 sequence (P49888 1-294): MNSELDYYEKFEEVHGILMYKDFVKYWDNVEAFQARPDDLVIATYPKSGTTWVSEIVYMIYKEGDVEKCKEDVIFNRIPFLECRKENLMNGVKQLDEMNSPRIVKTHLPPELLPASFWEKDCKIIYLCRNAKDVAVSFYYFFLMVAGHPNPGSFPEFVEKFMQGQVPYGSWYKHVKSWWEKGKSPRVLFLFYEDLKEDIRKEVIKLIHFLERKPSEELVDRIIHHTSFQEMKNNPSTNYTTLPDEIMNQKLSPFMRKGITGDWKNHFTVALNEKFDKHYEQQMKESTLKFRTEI
As to the kind of experiment: SULT1E1 inhibition test. To be noted: at 50 uM.

Another experiment deals with Mouse (1D1) (Mus musculus, UniProt Q3UZZ6). As to the kind of experiment: Inhibition of SULT1A3 homologues in different species: Mouse. Here is the method: as §1, §2
A further experiment concerns the target Dog (1D1) (Canis lupus familiaris, UniProt A0A8I3RXJ1). The experiment is described as follows: Inhibition of SULT1A3 homologues in different species: Dog. The protocol: as §2, with “Compounds 12, 23 and 25 were also tested for Inhibition of SULT1A3 in different species. Inhibition” for “Inhibition”
For the next experiment, the target named is T2, SULT2A1 (Homo sapiens, UniProt Q06520).
T2 sequence (Q06520 1-285): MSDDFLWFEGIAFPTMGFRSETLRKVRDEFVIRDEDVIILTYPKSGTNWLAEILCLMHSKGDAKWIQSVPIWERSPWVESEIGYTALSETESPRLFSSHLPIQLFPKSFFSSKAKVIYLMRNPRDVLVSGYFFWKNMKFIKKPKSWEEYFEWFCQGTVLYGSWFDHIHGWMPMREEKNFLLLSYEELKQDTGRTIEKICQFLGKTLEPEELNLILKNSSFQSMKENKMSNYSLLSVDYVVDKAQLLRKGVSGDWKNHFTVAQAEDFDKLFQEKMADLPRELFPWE
As to the kind of experiment: SULT2A1 inhibition test. To be noted: at 50 uM.

Another experiment addresses T3, Rat (1D1) (Rattus norvegicus, UniProt G3V9R3).
T3 sequence (G3V9R3 1-295): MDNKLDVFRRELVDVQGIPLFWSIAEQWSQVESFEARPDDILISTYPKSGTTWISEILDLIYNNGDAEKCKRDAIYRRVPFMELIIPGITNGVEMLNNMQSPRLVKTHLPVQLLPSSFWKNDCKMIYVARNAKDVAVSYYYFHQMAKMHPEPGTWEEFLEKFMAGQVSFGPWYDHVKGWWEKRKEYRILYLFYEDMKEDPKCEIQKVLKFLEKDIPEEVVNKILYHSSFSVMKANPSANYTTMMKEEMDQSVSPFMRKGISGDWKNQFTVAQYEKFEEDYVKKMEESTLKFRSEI
The experiment is described as follows: Inhibition of SULT1A3 homologues in different species: Rat. The protocol:
as §1, §2

The next experiment deals with SULT1A1 (Homo sapiens, UniProt P50225). The experiment is described as follows: SULT1A1 inhibition, 1-HP initial-rate assay. To be noted: ND = inhibition was not detected at 30 μM compound, parentheses one standard error. The protocol:
(§3) Inhibition studies. Inhibition parameters were determined under conditions identical to those described above (see, Initial-Rate Studies) except that [1-HP] was increased to 5.0 μM (˜61×Km) and inhibitor concentration was varied between 0.20-20×Ki. Ki was obtained using a least-squares fit to the following partial inhibition equation (25,28): v=kcat·(Ki+(1/kcat inh)·[I])/(Ki+[I]), where kcat inh is enzyme turnover at saturating substrates and allosteric inhibitor.
(§4) Inhibition studies. Inhibition parameters were determined under conditions identical to those described above (see, Initial-Rate Studies) except that [1-HP] was increased to 5.0 μM (˜61×Km) and inhibitor concentration was varied between 0.20-20×Ki. Ki was obtained using a least-squares fit to the following partial inhibition equation (47,50): V/Vax=(Ki+α·[I])/(Ki+[I]), where α is percentage of enzyme turnover remaining at saturating substrates and allosteric inhibitor.

In the next experiment the target is SULT1A3 (Homo sapiens, UniProt P0DMM9). As to the kind of experiment: SULT1A3 inhibition studies, 1-HP initial-rate fluorescence assay. On the set-up: Wild-type and mutant SULT1A3 coding regions were inserted into a pGEX-6P expression vector; N-His/GST/MBP triple-tag (N, cleaved yes); made in house; host or cells: E. coli BL21(DE3); inhibition: dose or concentration left out as unconfirmed. Here is the method:
The initial rates of SULT catalyzed 1-HP sulfonation are plotted as a function of inhibitor concentration, and are normalized relative to [inhibitor]=0. Enzyme activity was monitored by the sulfonation dependent change in 1-HP fluorescence (λex=325 nm, λem=370 nm). Less than 5% of the concentration-limiting substrate converted at the reaction endpoint was consumed during initial-rate measurements. Each point is the average of three independent determinations. Conditions: SULT (20 nM, active sites), PAPS (0.50 mM, 17×Km), 1-HP (5.0 μM, 61×Km), KPO4 (50 mM), pH 7.5, 25±2° C.
(§5) Initial-Rate Studies. Initial-rate parameters for the labeled or mutant SULT1A3 constructs were determined using a previously described 1-HP assay (25). Briefly, reactions were initiated by addition of PAPS (0.50 mM, 17×Km) to a solution containing enzyme (20 nM, active sites), 1-HP (2.0 μM, ˜24×Km), and KPO4 (50 mM), pH 7.5, 25±2° C. Reactions were monitored via fluorescence change associated with the conversion of 1-HP to 1-HP-S (λex=325 nm, λem=370 nm). Keq for the 1-HP sulfonation reaction is −250. Given the reaction conditions outlined above, ≥99% of 1-HP is converted to 1-HP-S, and ˜0.4% of PAPS is converted to PAP at equilibrium. […] Reaction progress curves were analyzed to obtain initial-rate parameters as described previously (26,27).
as §3
as §5, with “(47).” for “(25).”, “˜250.” for “−250.”, “(48,49).” for “(26,27).”
as §4

pKi: −log10 of the molar value. Like-named read-outs stand apart in the source and are kept apart here.

As usually defined, the pKi is −log10 of the Ki, conventionally taken in molar units.

Chain of SULT1A3 (P0DMM9 whole entry): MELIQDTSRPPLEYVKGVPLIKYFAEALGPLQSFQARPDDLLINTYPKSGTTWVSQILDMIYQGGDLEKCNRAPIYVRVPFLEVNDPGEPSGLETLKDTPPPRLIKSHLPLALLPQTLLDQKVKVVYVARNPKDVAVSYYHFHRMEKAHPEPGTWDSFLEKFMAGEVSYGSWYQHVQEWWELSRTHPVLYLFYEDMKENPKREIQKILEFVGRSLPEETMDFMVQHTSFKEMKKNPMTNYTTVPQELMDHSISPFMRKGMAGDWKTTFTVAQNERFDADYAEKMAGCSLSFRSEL
Chain of Green Monkey (1A3) (Z9LO20H8W3 1-295): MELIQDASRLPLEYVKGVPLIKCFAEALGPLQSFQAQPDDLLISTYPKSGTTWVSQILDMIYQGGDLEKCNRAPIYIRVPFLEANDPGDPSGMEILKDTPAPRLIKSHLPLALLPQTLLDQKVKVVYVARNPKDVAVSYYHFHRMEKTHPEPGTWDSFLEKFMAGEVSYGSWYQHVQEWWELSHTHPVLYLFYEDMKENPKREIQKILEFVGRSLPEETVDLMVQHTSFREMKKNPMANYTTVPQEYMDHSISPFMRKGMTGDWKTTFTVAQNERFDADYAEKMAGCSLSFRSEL
Chain of Rhesus Macaque (1A3) (A0A5F7ZQH3 1-295): as the sequence (Z9LO20H8W3 1-295) above, with A7T, V15M, C23Y, R230K, Y247F, A278E counted along it
Chain of SULT1A1 (P50225 whole entry): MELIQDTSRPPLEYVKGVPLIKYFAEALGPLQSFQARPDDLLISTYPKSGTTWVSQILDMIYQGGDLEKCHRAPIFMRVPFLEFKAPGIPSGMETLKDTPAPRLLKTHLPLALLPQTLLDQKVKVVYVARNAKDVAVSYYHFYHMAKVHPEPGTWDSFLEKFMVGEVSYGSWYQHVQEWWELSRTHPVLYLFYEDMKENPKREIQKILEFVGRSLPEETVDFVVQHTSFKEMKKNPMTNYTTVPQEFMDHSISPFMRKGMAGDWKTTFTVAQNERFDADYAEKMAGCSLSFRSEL
Chain of Mouse (1D1) (Q3UZZ6 whole entry): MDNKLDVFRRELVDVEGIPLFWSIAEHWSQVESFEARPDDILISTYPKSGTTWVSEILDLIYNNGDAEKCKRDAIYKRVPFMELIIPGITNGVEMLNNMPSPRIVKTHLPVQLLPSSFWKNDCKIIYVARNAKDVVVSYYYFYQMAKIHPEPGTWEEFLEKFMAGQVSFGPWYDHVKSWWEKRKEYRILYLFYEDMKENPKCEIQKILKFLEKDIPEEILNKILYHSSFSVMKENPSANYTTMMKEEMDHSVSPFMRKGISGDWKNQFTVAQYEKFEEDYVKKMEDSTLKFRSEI
Chain of Dog (1D1) (A0A8I3RXJ1 entry or part of it): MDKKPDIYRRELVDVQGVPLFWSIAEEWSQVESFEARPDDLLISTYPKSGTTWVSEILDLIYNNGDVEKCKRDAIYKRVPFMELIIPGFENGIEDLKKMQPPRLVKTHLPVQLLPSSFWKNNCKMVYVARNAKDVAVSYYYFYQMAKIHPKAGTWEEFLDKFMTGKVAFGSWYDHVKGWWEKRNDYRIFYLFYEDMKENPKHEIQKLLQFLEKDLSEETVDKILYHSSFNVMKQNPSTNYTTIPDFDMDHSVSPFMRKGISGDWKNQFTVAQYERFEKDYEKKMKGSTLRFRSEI

For the compound `CC(C)Cc1ccc2cc(/C=C/C(N)=O)cnc2n1` [Compound 23, (E)-3-(7-Isobutylnaphthyridin-3-yl)acrylamide], on Green Monkey (1A3), the “Green Monkey (1A3) % inh” value is recorded as 91 (4) %. In addition, the pKi was 7.14 on Green Monkey (1A3) (parentheses one standard error); 7.92 at Rhesus Macaque (1A3) (parentheses one standard error); 7.19 on Mouse (1D1) (parentheses one standard error); 6.93 at Dog (1D1) (standard error in neighbouring cell); 6.57 on Rat (1D1) (parentheses one standard error); 8.02 on SULT1A3 (standard error in neighbouring cell, read-out: Human (1A3) Ki). The “Rhesus Macaque (1A3) % inh” value on Rhesus Macaque (1A3) is given as 97 (2) %. Besides, the “inhibition of SULT1E1” value against SULT1E1 is on record as “no inhibition was detected”. Besides, at Mouse (1D1), the “Mouse (1D1) % inh” value is on record as 92 (3) %. On Dog (1D1), the “Dog (1D1) % inh” value was 81 (4) %. For the same compound, the “inhibition of SULT2A1” value against SULT2A1 is reported as “no inhibition was detected”. The “Rat (1D1) % inh” value on Rat (1D1) is on record as 37 (4) %. The Ki at SULT1A1 is 3.1 µM; on SULT1A3 (ND = inhibition was not detected at 30 μM compound, parentheses one standard error, read-out: SULT1A3 Ki/μM) it was 0.0092 µM. Also, the inhibition at SULT1A1 (read-out: SULT1A1 Enzyme Inhibition at Saturation/%) is 61%; on SULT1A3 (parentheses one standard error, read-out: SULT1A3 Enzyme Inhibition at Saturation/%) it was 96%. In addition, at SULT1A3, the “affinity for SULT1A3 (in words)” value is given as “low nanomolar affinity”. Besides, the “Human (1A3) % inh” value on SULT1A3 (parentheses one standard error) is listed as 97 (2) %. For the same compound, the inhibition at saturation result on SULT1A3 (text b218) is “almost complete inhibition”.

(Values after patent US12291504B2 (University of Pittsburgh—Of the Commonwealth System of …, priority 2018, dated 2025).)
